In EP1208096B1, “SUBSTITUTED PYRIDAZINES AND FUSED PYRIDAZINES WITH ANGIOGENESIS INHIBITING ACTIVITY” (Bayer Corporation, priority 1999, dated 2001):
Counter-ions that a name gives are not always drawn.

Tests used:
[1] = target: T1, NIH3T3 cells expressing the full length KDR receptor (Homo sapiens, UniProt P35968); experiment: Cell mechanistic assay - Inhibition of 3T3 KDR phosphorylation; format: cell-based; details: VEGF (30 ng / ml) for 10 minutes after 30 minutes with compound; KDR phosphotyrosine ELISA
T1 construct: NIH3T3 cells expressing the full length KDR receptor; expressed in transfected cells; host or cells: NIH3T3 cells (G418 selection)
T1 sequence (P35968 20-1356): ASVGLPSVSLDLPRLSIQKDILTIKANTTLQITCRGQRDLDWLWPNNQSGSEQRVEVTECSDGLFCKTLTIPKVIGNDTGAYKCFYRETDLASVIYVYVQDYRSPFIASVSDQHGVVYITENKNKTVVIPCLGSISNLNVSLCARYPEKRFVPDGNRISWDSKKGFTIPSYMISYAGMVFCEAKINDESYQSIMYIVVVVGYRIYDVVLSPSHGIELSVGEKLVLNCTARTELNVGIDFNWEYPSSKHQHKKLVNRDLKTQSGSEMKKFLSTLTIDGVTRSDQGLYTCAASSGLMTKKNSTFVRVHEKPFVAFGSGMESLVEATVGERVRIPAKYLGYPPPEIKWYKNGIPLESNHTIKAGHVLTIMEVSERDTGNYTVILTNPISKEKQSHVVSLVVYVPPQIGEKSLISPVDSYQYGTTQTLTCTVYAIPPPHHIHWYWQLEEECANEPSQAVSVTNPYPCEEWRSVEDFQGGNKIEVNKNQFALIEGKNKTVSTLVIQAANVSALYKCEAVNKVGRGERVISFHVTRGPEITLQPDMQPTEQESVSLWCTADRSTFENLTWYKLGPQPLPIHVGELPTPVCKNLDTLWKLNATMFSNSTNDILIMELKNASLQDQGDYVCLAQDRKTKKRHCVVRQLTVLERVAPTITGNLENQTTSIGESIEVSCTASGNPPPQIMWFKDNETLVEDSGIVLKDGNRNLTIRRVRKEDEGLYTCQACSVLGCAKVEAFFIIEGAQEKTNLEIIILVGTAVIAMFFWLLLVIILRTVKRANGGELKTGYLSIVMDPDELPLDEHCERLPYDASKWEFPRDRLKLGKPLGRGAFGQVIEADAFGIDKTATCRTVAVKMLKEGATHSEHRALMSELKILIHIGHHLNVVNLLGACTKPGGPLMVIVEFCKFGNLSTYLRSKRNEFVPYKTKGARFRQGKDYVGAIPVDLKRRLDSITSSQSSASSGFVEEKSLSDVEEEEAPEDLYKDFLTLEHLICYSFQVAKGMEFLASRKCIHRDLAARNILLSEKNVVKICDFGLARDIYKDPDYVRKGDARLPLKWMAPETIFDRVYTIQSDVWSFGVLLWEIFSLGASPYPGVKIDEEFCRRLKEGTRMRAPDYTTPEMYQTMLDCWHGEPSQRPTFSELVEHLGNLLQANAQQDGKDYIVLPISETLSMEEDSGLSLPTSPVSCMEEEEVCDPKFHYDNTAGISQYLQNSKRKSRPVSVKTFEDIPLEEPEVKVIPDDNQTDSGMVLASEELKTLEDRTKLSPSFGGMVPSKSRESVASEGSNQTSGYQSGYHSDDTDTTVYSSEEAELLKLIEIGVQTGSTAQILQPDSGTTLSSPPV
Method: NIH3T3 cells expressing the full length KDR receptor were grown in DMEM (Life Technologies, Inc., Grand Island, NY) supplemented with 10% newborn calf serum, low glucose, 25 mM /L sodium pyruvate, pyridoxine hydrochloride and 0.2 mg/ ml of G418 (Life Technologies Inc., Grand Island, NY). The cells were maintained in collagen I-coated T75 flasks (Becton Dickinson Labware, Bedford, MA) in a humidified 5% CO2 atmosphere at 37°C.
Fifteen thousand cells were plated into each well of a collagen I-coated 96-well plate in the DMEM growth medium. Six hours later, the cells were washed and the medium was replaced with DMEM without serum. After overnight culture to quiesce the cells, the medium was replaced by Dulbecco's phosphate-buffered saline (Life Technologies Inc., Grand Island, NY) with 0.1% bovine albumin (Sigma Chemical Co., St Louis, MO). After adding various concentrations (0-300 nM) of test compounds to the cells in 1% final concentration of DMSO, the cells were incubated at room temperature for 30 minutes. The cells were then treated with VEGF (30 ng / ml) for 10 minutes at room temperature. Following VEGF stimulation, the buffer was removed and the cells were lysed by addition of 150 µl of extraction buffer (50 mM Tris, pH 7.8, supplemented with 10% glycerol, 50 mM BGP, 2 mM EDTA, 10 mM NaF, 0.5 mM NaVO4, and 0.3% TX-100) at 4°C for 30 minutes.
To assess receptor phosphorylation, 100 microliters of each cell lysate was added to the wells of an ELISA plate precoated with 300 ng of antibody C20 (Santa Cruz Biotechnology, Inc., Santa Cruz , CA). Following a 60-minute incubation, the plate was washed and bound KDR was probed for phosphotyrosine using an anti-phosphotyrosine mAb clone 4G10 (Upstate Biotechnology, Lake Placid, NY). The plate was washed and wells were incubated with anti-mouse IgG/HRP conjugate (Amersham International plc, Buckinghamshire, England) for 60 minutes. Wells were washed and phosphotyrosine was quantitated by addtion of 100 µl per well of 3,3',5,5' tetramethylbenzidine (Kirkegaard and Perry, TMB Microwell 1 Component peroxidase substrate) solution. Color development was arrested by the addition of 100 µl 1% HCl based stop solution (Kirkegaard and Perry, TMB 1 Component Stop Solution).
Optical densities (OD) were determined spectrophotometrically at 450 nm in a 96-well plate reader (SpectraMax 250, Molecular Devices). Background (no VEGF added) OD values were subtracted from all ODs and percent inhibition was calculated according to the equation: % Inhibition =((OD(VEGF control) - OD(with test compound)) X 100)/(OD(VEGF control) - OD(no VEGF added)) [formula]
IC50s were determined with a least squares analysis program using compound concentration versus percent inhibition. Compounds that have IC50 < 20 nM in this assay include those of Examples 2, 6, 7, 11, 15 and 16. Compounds that have IC50 values between 20 nM and 50 nM include those of examples 1, 4, 5, 8, 10, 12, 13 and 14. Those that have measured IC50 values > 50 nM include those of examples 9 and 21.

[2] = target: T2, cytosolic kinase domain of KDR kinase (Homo sapiens, UniProt P35968); experiment: KDR Assay (ELISA, phosphorylation of poly(Glu4;Tyr1)); format: biochemical; details: 3.3 µM ATP, 60 minutes at room temperature, 30 ng KDR kinase domain
T2 construct: The cytosolic kinase domain of KDR kinase was expressed as a 6His fusion protein in Sf9 insect cells; 6His; made in house; host or cells: Sf9 insect cells
T2 sequence (P35968 834-1162 limits assumed): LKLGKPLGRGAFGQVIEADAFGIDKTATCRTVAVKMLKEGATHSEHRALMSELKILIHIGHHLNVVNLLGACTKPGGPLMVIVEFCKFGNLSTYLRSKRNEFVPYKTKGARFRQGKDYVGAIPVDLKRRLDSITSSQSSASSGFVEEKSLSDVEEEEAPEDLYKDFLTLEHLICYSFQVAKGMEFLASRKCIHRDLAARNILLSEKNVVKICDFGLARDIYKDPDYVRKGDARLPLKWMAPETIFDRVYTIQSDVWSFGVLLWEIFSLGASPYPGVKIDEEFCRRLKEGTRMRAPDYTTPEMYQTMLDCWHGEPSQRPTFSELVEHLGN
Method: The cytosolic kinase domain of KDR kinase was expressed as a 6His fusion protein in Sf9 insect cells. The KDR kinase domain fusion protein was purified over a Ni^++ chelating column. Ninety-six well ELISA plates were coated with 5 µg poly(Glu4;Tyr1) (Sigma Chemical Co., St Louis, MO) in 100 µl HEPES buffer (20 mM HEPES, pH 7.5, 150 mM NaCl, 0.02% Thimerosal) at 4° overnight. Before use, the plate was washed with HEPES, NaCl buffer and the plates were blocked with 1% BSA, 0.1% Tween 20 in HEPES, NaCl buffer.
Test compounds were serially diluted in 100% DMSO from 4 mM to 0.12 µM in half-log dilutions. These dilutions were further diluted twenty fold in H2O to obtain compound solutions in 5% DMSO. Following loading of the assay plate with 85 µl of assay buffer (20 mM HEPES, pH 7.5, 100 mM KCl, 10 mM MgCl2, 3 mM MnCl2, 0.05% glycerol, 0.005% Triton X-100, 1 mM -mercaptoethanol, with or without 3.3 µM ATP), 5 µl of the diluted compounds were added to a final assay volume of 100 µl. Final concentrations were between 10 µM, and 0.3 nM in 0.25% DMSO. The assay was initiated by the addition of 10µl (30 ng) of KDR kinase domain.
The assay was incubated with test compound or vehicle alone with gentle agitation at room temperature for 60 minutes. The wells were washed and phosphotyrosines (PY) were probed with an anti-phosphotyrosine (PY), mAb clone 4G10 (Upstate Biotechnology, Lake Placid, NY). PY/anti-PY complexes were detected with an anti-mouse IgG/HRP conjugate (Amersham International plc, Buckinghamshire, England). Phosphotyrosine was quantitated by incubating with 100 µl 3, 3', 5, 5' tetramethylbenzidine solution (Kirkegaard and Perry, TMB Microwell 1 Component peroxidase substrate). Color development was arrested by the addition of 100 µl 1% HCl-based stop solution (Kirkegaard and Perry, TMB I Component Stop Solution).
Optical densities were determined spectrophotometrically at 450 nm in a 96-well plate reader, SpectraMax 250 (Molecular Devices). Background (no ATP in assay) OD values were subtracted from all ODs and the percent inhibition was calculated according to the equation: % Inhibition =((OD(vehicle control) - OD(with compound)) X 100)/(OD(vehicle control) - OD(no ATP added)) [formula]
The IC50 values were determined with a least squares analysis program using compound concentration versus percent inhibition. Compounds that have IC50 < 100 nM in this assay include those of Examples 1, 2, 4, 5, 6, 7, 10, 11, 12, 13, 14, 15, 16 and 23. Compounds that have IC50 values between 100 nM and 1,000 nM include those of examples 8, 9 and 22. Those that have measured IC50 values > 1,000 nM include those of examples 3, 17, 18 and 21.

SMILES | IC50 [1] [nM] | IC50 [2] [nM]
NC(=O)c1cc(COc2nnc(Nc3ccc(Cl)cc3)c3ccccc23)ccn1 [Example 16, 4-[4-(4-Chlorophenylamino)phthalazin-1-yloxymethyl]pyridin-2-yl carboxylic acid amide dimethanesulfonate] | < 20 | 
N#CC(c1ccncc1)c1nnc(Nc2ccc3c(c2)CCC3)c2ccccc12 (centres unmarked) [Example 22, 1-(indan-5-ylamino)-4-(4-pyridylcyanomethyl)phthalazine] |  | 100 to 1000
c1ccc2c(Nc3ccc4c(c3)CCC4)nnc(Cc3ccncc3)c2c1 [Example 10, 1-(indan-5-ylamino)-4-(4-pyridylmethyl)phthalazine] | 20 to 50 | < 100
NC(=O)c1cc(Cc2nnc(Nc3ccc(Cl)cc3)c3ccccc23)ccn1 [Example 13, 4-[4-(4-Chlorophenylamino)phthalazin-1-ylmethyl]pyridin2-yl carboxylic acid amide dihydrochloride] | 20 to 50 | < 100
NC(=O)c1cc(Cc2nnc(Nc3ccc(Cl)cc3)c3ccccc23)ccn1 [Example 14, 4-[4-(4-Chlorophenylamino)phthalazin-1-ylmethyl]pyridin-2-yl carboxylic acid amide dimethanesulfonate] | 20 to 50 | 
NC(=O)c1cc(COc2nnc(Nc3ccc(Cl)cc3)c3ccccc23)ccn1 [Example 15, 4-[4-(4-Chlorophenylamino)phthalazin-1-yloxymethyl]pyridin-2-yl carboxylic acid amide dihydrochloride] | < 20 | < 100
CNC(=O)c1cc(Cc2nnc(Nc3ccc(Cl)cc3)c3ccccc23)ccn1 [Example 12, 4-[4-(4-Chlorophenylamino)phthalazin-1-ylmethyl]pyridin-2-yl carboxylic acid methylamide dimethanesulfonate] | 20 to 50 | 
Clc1ccc(Nc2nnc(Sc3nnc(-c4ccncc4)[nH]3)c3ccccc23)cc1 [Example 17, 1-(4-chlorophenylamino)-4-[5-(4-pyridyl)-1H-1,2,4-triazolyl-3-ylthio]phthalazine] |  | > 1000
CNC(=O)c1cc(Cc2nnc(Nc3cccc(Br)c3)c3ccccc23)ccn1 [Example 6, 4-[4-(3-Bromophenylamino)phthalazin-1-ylmethyl]-pyridin-2-yl carboxylic acid methylamide] | < 20 | < 100
CNC(=O)c1cc(Cc2nnc(Nc3ccc(Cl)cc3)c3ccccc23)ccn1 [Example 11, 4-[4-(4-Chlorophenylamino)phthalazin-1-ylmethyl]pyridin-2-yl carboxylic acid methylamide dihydrochloride] | < 20 | 
c1ccc2c(Nc3ccc4ncsc4c3)nnc(Cc3ccncc3)c2c1 [Example 23, 1-(benzothiazol-6-ylamino)-4-(4-pyridylmethyl)phthalazine] |  | < 100
Clc1ccc(Nc2nnc(Cc3ccnc(-c4ccccc4)c3)c3ccccc23)cc1 [Example 8, 1-(4-chlorophenylamino)-4-[(2-phenyl-4-pyridyl)methyl]phthalazine] | 20 to 50 | 100 to 1000
NC(=O)c1cc(COc2nnc(Nc3ccc(Cl)cc3)c3ccccc23)ccn1 [Example 5, 4-[4-(4-Chlorophenylamino)phthalazin-1-yloxymethyl]pyridin-2-yl carboxylic acid amide] | 20 to 50 | 
CC(C)c1ccc(Nc2nnc(Sc3nnc(-c4ccncc4)[nH]3)c3ccccc23)cc1 [Example 18, 1-(4-isopropylphenylamino)-4-[5-(4-pyridyl)-1H-1,2,4-triazolyl-3-ylthio]phthalazine] |  | > 1000
Clc1ccc(Nc2nnc(OCc3cccnc3)c3ccccc23)cc1 [Example 3, 1-(4-chlorophenylamino)-4-(3-pyridylmethoxy)phthalazine] |  | > 1000
CNC(=O)c1cc(COc2nnc(Nc3ccc(Cl)cc3)c3ccccc23)ccn1 [Example 4, 4-[4-(4-Chlorophenylamino)phthalazin-1-yloxymethyl]pyridin-2-yl carboxylic acid methylamide] | 20 to 50 | < 100
c1ccc2c(Nc3ccc(Oc4ccncc4)cc3)nnc(Cc3ccncc3)c2c1 [Example 9, 1-[4-(4-pyridyloxy)phenylamino]-4-(4-pyridylmethyl)phthalazine] | > 50 | 100 to 1000
NC(=O)c1cc(Cc2nnc(Nc3cccc(Br)c3)c3ccccc23)ccn1 [Example 7, 4-[4-(3-Bromophenylamino)phthalazin-1-ylmethyl]-pyridin-2-yl carboxylic acid amide] | < 20 | < 100
